Measured values from ChEMBL document CHEMBL5303304, “EUbOPEN Chemogenomics Library - IncuCyte” (2023).

Tests used:
Format in all cases: toxicity, cell-based
U2OS = test: Incucyte cell viability with U2OS; settings: human, 10 µM, compound concentration 10 uM
Fibroblast = test: Incucyte cell viability with human fibroblast; settings: 10 µM, compound concentration 10 uM
HEK-293T = test: Incucyte cell viability with HEK293T; settings: human, 10 µM, compound concentration 10 uM
Also: unitless GR value; below 1 slowed growth and below 0 cell loss.

Structure (SMILES) | Growth Rate (U2OS; 0 h, replicate number 1) | Growth Rate (U2OS; 0 h, replicate number 2) | Growth Rate (U2OS; 6 h, replicate number 1) | Growth Rate (U2OS; 6 h, replicate number 2) | Growth Rate (U2OS; 12 h, replicate number 1) | Growth Rate (U2OS; 12 h, replicate number 2) | Growth Rate (U2OS; 18 h, replicate number 1) | Growth Rate (U2OS; 18 h, replicate number 2) | Growth Rate (U2OS; 24 h, replicate number 1) | Growth Rate (U2OS; 24 h, replicate number 2) | Growth Rate (Fibroblast; 0 h, replicate number 1) | Growth Rate (Fibroblast; 6 h, replicate number 2) | Growth Rate (Fibroblast; 12 h, replicate number 2) | Growth Rate (Fibroblast; 18 h, replicate number 1) | Growth Rate (HEK-293T; 0 h, replicate number 1) | Growth Rate (Fibroblast; 0 h, replicate number 2) | Growth Rate (Fibroblast; 6 h, replicate number 1) | Growth Rate (HEK-293T; 0 h, replicate number 2) | Growth Rate (HEK-293T; 24 h, replicate number 2) | Growth Rate (HEK-293T; 6 h, replicate number 2) | also measured
COc1ccc(OC)c(-c2ccc(NC(=O)c3ccncc3F)cc2)c1 | -0.54 | -0.01 | 0.57 | 0.63 | 0.56 | 0.84 | 0.74 | 0.87 | 0.87 | 0.91 | -0.06 | -0.75 | 0.93 | -0.35 | -0.77 | – | – | – | – | – | Growth Rate (Fibroblast; 24 h, replicate number 2): 0.92
COc1cc(N2CCN(C)CC2)ccc1Nc1nccc(-c2cn(C)c3cnccc23)n1 | – | -0.71 | – | – | – | – | – | – | 0.75 | – | – | – | – | – | -0.65 | 0.04 | -1 | -0.69 | 0.8 | – | –
O=C(NS(=O)(=O)N1CCC1)c1cc(C2CC2)c(OCC23CC4CC(CC(C4)C2)C3)cc1F | -0.5 | -0.98 | 0.59 | 0.7 | – | 0.73 | – | 0.8 | – | 0.87 | 0.19 | -1 | -0.01 | 0.03 | 0.85 | – | 0.24 | 0.39 | 0.92 | 0.7 | Growth Rate (Fibroblast; 18 h, replicate number 2): 0.31; Growth Rate (Fibroblast; 24 h, replicate number 1): 0.81; Growth Rate (Fibroblast; 24 h, replicate number 2): 0.37; Growth Rate (HEK-293T; 6 h, replicate number 1): 0.69; Growth Rate (HEK-293T; 12 h, replicate number 1): 0.88; Growth Rate (HEK-293T; 18 h, replicate number 1): 0.87; Growth Rate (HEK-293T; 18 h, replicate number 2): 0.99; Growth Rate (HEK-293T; 24 h, replicate number 1): 0.8
CN(Cc1cccc(F)c1CNc1cc(F)c(S(=O)(=O)Nc2cscn2)c(F)c1)C(C)(C)C | – | – | 0.37 | 0.58 | 0.72 | 0.86 | 0.89 | 0.97 | 0.9 | 0.96 | – | – | – | 0.65 | 0.6 | -0.81 | – | 0.65 | – | – | –
CN1CCN(c2nc(N)c3ccccc3n2)CC1 | – | -0.89 | 0.43 | 0.36 | 0.81 | 0.53 | 0.76 | – | 0.77 | 0.83 | – | – | 0.67 | 0.78 | 0.4 | – | 0.45 | 0.8 | – | 0.91 | Growth Rate (Fibroblast; 12 h, replicate number 1): -1
Cl.Cl.c1ccc2c(-c3cnn4cc(-c5ccc(N6CCNCC6)cc5)cnc34)ccnc2c1 | -0.92 | – | -0.9 | -0.64 | -0.48 | -0.46 | -0.35 | -0.37 | -0.32 | – | – | – | – | – | -0.16 | -0.67 | -0.76 | – | -0.38 | -0.92 | Growth Rate (Fibroblast; 12 h, replicate number 1): -1; Growth Rate (HEK-293T; 12 h, replicate number 2): -0.66; Growth Rate (HEK-293T; 18 h, replicate number 2): -0.48
COc1cc2ncnc(Nc3ccc(Oc4ccccc4)cc3C)c2cc1OC.Cl | 0.5 | -0.92 | – | 0.35 | – | 0.74 | – | – | – | – | -0.71 | – | – | – | -0.14 | -0.78 | 0.3 | -0.45 | – | – | Growth Rate (Fibroblast; 12 h, replicate number 1): -1
NC(=O)c1ccc(-c2nc(-c3ccc4c(c3)OCO4)c(-c3ccccn3)[nH]2)cc1.O | -0.57 | -0.09 | 0.96 | – | 0.79 | – | 0.95 | 0.79 | 0.94 | – | -0.21 | -0.54 | – | -0.48 | 0.76 | – | -0.01 | – | – | – | –
CC(Sc1nc2c(cnn2-c2cccc(Cl)c2)c(=O)[nH]1)C(N)=O (stereo not given) | – | – | -0.28 | 0.38 | 0.5 | 0.69 | 0.85 | 0.68 | 0.84 | 0.85 | – | – | – | 0.53 | 1 | -1 | 0.44 | 0.66 | – | – | –
